Tests used:
[1] = target: T1, human A2B adenosine receptors (Homo sapiens, UniProt P29275); experiment: Displacement of [3H]MRE2029F20 binding at human A2B adenosine receptors; details: [3H]MRE2029F20 displacement, human A2B receptors (footnote: HEK293 cells; method: CHO cells), n = 3-6; geometric mean (95% confidence limits); read-out: Ki hA2B
T1 construct: expressed in transfected cells; host or cells: CHO cells (whole cells)
T1 sequence (P29275 1-332): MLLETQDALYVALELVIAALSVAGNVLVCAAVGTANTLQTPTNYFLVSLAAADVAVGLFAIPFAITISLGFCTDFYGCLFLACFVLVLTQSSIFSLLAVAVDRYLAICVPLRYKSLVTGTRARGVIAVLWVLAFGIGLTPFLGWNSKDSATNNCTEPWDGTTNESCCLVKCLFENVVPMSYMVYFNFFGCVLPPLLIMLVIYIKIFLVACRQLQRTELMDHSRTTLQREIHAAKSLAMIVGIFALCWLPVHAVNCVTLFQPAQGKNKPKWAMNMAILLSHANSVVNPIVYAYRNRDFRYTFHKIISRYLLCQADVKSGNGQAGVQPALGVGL
Experimental: […] (Naunyn-Schmied. Arch Pharm. 1998, 357: 1-9). Briefly, the cells are grown adherently and maintained in Dulbecco's Modified Eagles Medium with nutrient mixture F12 (DMEM/F12) without nucleosides, containing 10% fetal calf serum, penicillin (100 U/mL), streptomycin (100 μg/mL), L-glutamine (2 mM) and Geneticin (G418, 0.2 mg/ml) at 37° C. in 5% CO2/95% air. For membrane preparation the culture medium is removed and the cells are washed with phosphate-buffered saline and scraped off T75 flasks in ice-cold hypo tonic buffer (5 mM Tris HCl, 1 mM EDTA, pH 7.4). The cell suspension is homogenized with Polytron, the homogenate is spun for 10 min at 1000×g and the supernatant is then centrifuged for 30 min at 100,000×g. The membrane pellet is suspended in 50 mM Tris HCl buffer (pH 7.4) for A1 adenosine receptors, in 50 mM Tris HCl, 10 mM MgCl2 (pH 7.4) for A2A adenosine receptors, in 50 mM Tris HCl, 10 mM MgCl2, 1 mM EDTA (pH 7.4) for A2B and A3 adenosine receptors.
All new synthesized compounds have been tested to evaluate their affinity to human A1, A2A, A2B and A3 adenosine receptors. […] Pharmacol., 2000, 57: 968-975). Non-specific binding is determined in the presence of 10 μM of CHA and this is always ≦10% of the total binding. […] recombinant A2A adenosine receptors is performed using a suspension of membranes (50 μg of protein/assay) and at least 6-8 different concentrations of studied antagonists for an incubation time of 60 min at 4° C. Non-specific binding is determined in the presence of 1 μM ZM 241385 and is about 20% of total binding. […] Non-specific binding is defined as binding in the presence of 1 μM MRE 3029F20 and is about 25% of total binding. […] Non-specific binding is defined as binding in the presence of 1 μM MRE 3008F20 and is about 25% of total binding. Bound and free radioactivity are separated by filtering the assay mixture through Whatman GF/B glass fiber filters using a Micro-Mate 196 cell harvester (Packard Instrument Co.). The filter bound radioactivity is counted on a Top Count (efficiency 57%) with Micro-Scint 20.
(§1) The protein concentration is determined according to a Bio-Rad method (Bradford, Anal Biochem. 1976, 72: 248-254) with bovine albumin as a standard reference. Inhibitory binding constant, Ki, values are calculated from those of IC50 according to Cheng & Prusoff equation (Biochem. Pharmacol 1973, 22: 3099-3108): Ki=IC50/(1+[C*]/KD*) where [C*] is the concentration of the radioligand and KD* its dissociation constant. A weighted non linear least-squares curve fitting program LIGAND (Munson et al., Anal. Biochem 1980, 107: 220-239) is used for computer analysis of inhibition experiments Data are expressed as geometric mean with 95% confidence limits in parentheses. Examples of Animal Models

[2] = target: T1, human A2B adenosine receptors; experiment: cAMP assay in CHO cells expressing human A2B adenosine receptors (antagonism of NECA-induced cAMP); type: cell-based; details: antagonism of NECA (100 nM)-induced cAMP, geometric mean (95% confidence limits), read-out: IC50 hA2B (cAMP assay)
Experimental: Measurement of Cyclic AMP Levels in CHO Cells Transfected with Human A2B Adenosine Receptors
CHO cells transfected with human A2B adenosine receptors are washed with phosphate-buffered saline, diluted trypsine and centrifuged for 10 min at 200 g. The pellet containing the CHO cells (1×10^6 cells/assay) is suspended in 0.5 mL of incubation mixture: NaCl 150 mM, KCl 2.7 mM, NaH2PO4 0.37 mM, MgSO4 1 mM, CaCl2 1 mM, Hepes 5 mM, MgCl2 10 mM, glucose 5 mM, pH 7.4 at 37° C. Then 2.0 IU/mL adenosine deaminase and 0.5 mM 4-(3-butoxy-4-methoxybenzyl)-2-imidazolidinone (Ro 20-1724) as phosphodiesterase inhibitor are added and preincubated for 10 min a shaking bath at 37° C. The potency of antagonists studied are determined by antagonism of NECA (100 nM)-induced stimulation of cyclic AMP levels. The reaction is terminated by the addition of cold 6% thrichloroacetic acid (TCA). The TCA suspension is centrifuged at 2000 g for 10 min at 4° C. and the supernatant is extracted four times with water saturated diethyl ether. The final aqueous solution is tested for cyclic AMP levels by a competition protein binding assay. Samples of cyclic AMP standard ([…]) are added to each test tube containing the incubation buffer (trizma base 0.1 M, aminophylline 8.0 mM, 2-mercaptoethanol 6.0 mM (pH 7.4) and [^3H]cyclic AMP in a total volume of 0.5 mL. The binding protein previously prepared from beef adrenals, is added to the samples previously incubated at 4° C. for 150 min, and after the addition of charcoal are centrifuged at 2000 g for 10 min. The clear supernatant is counted with 4 mL of Atomlight liquid scintillator and counted in a Tri Carb Packard 2500 TR scintillation counter.
as §1

[3] = target: T2, human A1 adenosine receptors (Homo sapiens, UniProt P30542); experiment: Displacement of [3H]DPCPX binding at human A1 adenosine receptors expressed in CHO cells; details: [3H]DPCPX displacement, n = 3-6, geometric mean (95% confidence limits), read-out: Ki hA1
T2 construct: expressed in transfected cells; host or cells: CHO cells (membranes)
T2 sequence (P30542 1-326): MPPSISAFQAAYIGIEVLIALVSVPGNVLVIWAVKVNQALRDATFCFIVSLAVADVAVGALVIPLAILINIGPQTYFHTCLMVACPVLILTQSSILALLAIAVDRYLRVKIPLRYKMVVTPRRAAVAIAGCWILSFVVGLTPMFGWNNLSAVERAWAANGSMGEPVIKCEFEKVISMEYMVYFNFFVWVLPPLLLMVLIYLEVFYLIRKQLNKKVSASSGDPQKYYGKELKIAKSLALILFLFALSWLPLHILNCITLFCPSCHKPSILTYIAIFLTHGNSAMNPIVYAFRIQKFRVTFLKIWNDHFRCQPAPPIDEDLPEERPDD
Experimental: (§2) The human adenosine receptors have been transfected in CHO cells according with the method previously described by Klotz et al. (Naunyn-Schmied. Arch Pharm. 1998, 357: 1-9). Briefly, the cells are grown adherently and maintained in Dulbecco's Modified Eagles Medium with nutrient mixture F12 (DMEM/F12) without nucleosides, containing 10% fetal calf serum, penicillin (100 U/mL), streptomycin (100 μg/mL), L-glutamine (2 mM) and Geneticin (G418, 0.2 mg/ml) at 37° C. in 5% CO2/95% air. For membrane preparation the culture medium is removed and the cells are washed with phosphate-buffered saline and scraped off T75 flasks in ice-cold hypo tonic buffer (5 mM Tris HCl, 1 mM EDTA, pH 7.4). The cell suspension is homogenized with Polytron, the homogenate is spun for 10 min at 1000×g and the supernatant is then centrifuged for 30 min at 100,000×g. The membrane pellet is suspended in 50 mM Tris HCl buffer (pH 7.4) for A1 adenosine receptors, in 50 mM Tris HCl, 10 mM MgCl2 (pH 7.4) for A2A adenosine receptors, in 50 mM Tris HCl, 10 mM MgCl2, 1 mM EDTA (pH 7.4) for A2B and A3 adenosine receptors.
(§3) All new synthesized compounds have been tested to evaluate their affinity to human A1, A2A, A2B and A3 adenosine receptors. Displacement experiments of [^3H]-DPCPX to CHO cells transfected with the human recombinant A1 adenosine receptors are performed for 120 min at 25° C. incubating diluted membranes (50 μg of protein/assay) and at least 6-8 different concentrations of examined antagonists (Varani et al., Mol. Pharmacol., 2000, 57: 968-975). Non-specific binding is determined in the presence of 10 μM of CHA and this is always ≦10% of the total binding. Binding of [^3H]-ZM 241385 to CHO cells transfected with the human recombinant A2A adenosine receptors is performed using a suspension of membranes (50 μg of protein/assay) and at least 6-8 different concentrations of studied antagonists for an incubation time of 60 min at 4° C. Non-specific binding is determined in the presence of 1 μM ZM 241385 and is about 20% of total binding. Competition binding experiments of [^3H]-MRE 2029F20 to CHO cells transfected with the human recombinant A2B adenosine receptors are carried out incubating for 120 min at 4° C. diluted membranes (50 μg of protein/assay) and at least 6-8 different concentrations of examined compounds. Non-specific binding is defined as binding in the presence of 1 μM MRE 3029F20 and is about 25% of total binding. Competition binding experiments of [^3H]-MRE 3008F20 to CHO cells transfected with the human recombinant A3 adenosine receptors^5 are carried out incubating for 120 min at 4° C. diluted membranes (50 μg of protein/assay) and at least 6-8 different concentrations of examined ligands. Non-specific binding is defined as binding in the presence of 1 μM MRE 3008F20 and is about 25% of total binding. Bound and free radioactivity are separated by filtering the assay mixture through Whatman GF/B glass fiber filters using a Micro-Mate 196 cell harvester (Packard Instrument Co.). The filter bound radioactivity is counted on a Top Count (efficiency 57%) with Micro-Scint 20.
as §1

[4] = target: T3, human A2A adenosine receptors (Homo sapiens, UniProt P29274); experiment: Displacement of [3H]ZM241385 binding at human A2A adenosine receptors expressed in CHO cells; details: [3H]ZM241385 displacement, n = 3-6, geometric mean (95% confidence limits), read-out: Ki hA2A
T3 construct: expressed in transfected cells; host or cells: CHO cells (membranes)
Experimental: as §2, §3, §1

T3 sequence (P29274 whole entry): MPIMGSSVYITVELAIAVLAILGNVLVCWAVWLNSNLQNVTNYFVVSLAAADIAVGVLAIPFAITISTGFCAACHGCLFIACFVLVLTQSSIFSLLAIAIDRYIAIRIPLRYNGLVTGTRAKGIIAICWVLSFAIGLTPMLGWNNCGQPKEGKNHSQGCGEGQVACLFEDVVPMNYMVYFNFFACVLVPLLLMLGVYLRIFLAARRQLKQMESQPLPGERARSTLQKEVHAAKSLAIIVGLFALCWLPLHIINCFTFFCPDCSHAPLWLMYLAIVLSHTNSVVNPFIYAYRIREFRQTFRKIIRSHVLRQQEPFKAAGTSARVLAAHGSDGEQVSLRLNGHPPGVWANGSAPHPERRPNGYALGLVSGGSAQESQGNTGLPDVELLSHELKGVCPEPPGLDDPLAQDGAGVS

| Structure (SMILES) | Ki [1] | IC50 [2] | melting point | Ki [3] | Ki [4] |
| --- | --- | --- | --- | --- | --- |
| CCCn1c(=O)c2[nH]c(-c3cc(CC)n(CC(=O)Nc4ccc(Cl)cc4)n3)nc2n(CCC)c1=O [Example 9] | – | > 1000 nM | 256 to 257 °C | > 1000 nM | > 1000 nM |
| CCCn1c(=O)c2[nH]c(-c3cc(C)n(CC(=O)Nc4ccc(N(C)C)cc4)n3)nc2n(CCC)c1=O [Example 11, 2-[3-(2,6-Dioxo-1,3-dipropyl-2,3,6,7-tetrahydro-1H-purin-8-yl)-5-methyl-pyrazol-1-yl]-N-(4-dimethylaminophenyl)-acetamide] | – | > 1000 nM | > 300 °C | > 1000 nM | > 1000 nM |
| CCCn1c(=O)c2[nH]c(-c3cc(C)n(CC(=O)Nc4cccc5ccccc45)n3)nc2n(CCC)c1=O [Example 13, 2-[3-(2,6-Dioxo-1,3-dipropyl-2,3,6,7-tetrahydro-1H-purin-8-yl)-5-methyl-pyrazol-1-yl]-N-(naphthalen-1-yl)-acetamide] | – | > 1000 nM | > 300 °C | > 1000 nM | > 1000 nM |
| CCCn1c(=O)c2[nH]c(-c3nn(CC(=O)Nc4ccc(Cl)cc4)c(C)c3I)nc2n(CCC)c1=O [Example 20, 2-[4-Iodo-3-(2,6-dioxo-1,3-dipropyl-2,3,6,7-tetrahydro-1H-purin-8-yl)-5-methyl-pyrazol-1-yl]-N-(4-chlorophenyl)-acetamide] | – | > 1000 nM | 296 to 297 °C | > 1000 nM | > 1000 nM |

These reach a lower IC50 [2]. Values come first.

| Ki [1] | IC50 [2] | melting point | Ki [3] | Ki [4] | Structure (SMILES) |
| --- | --- | --- | --- | --- | --- |
| 35 nM | 156 nM | 270 to 273 °C | – | – | CCCn1c(=O)c2[nH]c(-c3cc(C)n(CC(=O)Nc4ccc(Br)cc4)n3)nc2n(CCC)c1=O [Example 3, 2-[3-(2,6-Dioxo-1,3-dipropyl-2,3,6,7-tetrahydro-1H-purin-8-yl)-5-methyl-pyrazol-1-yl]-N-(4-bromophenyl)acetamide] |
| 7 nM | 43 nM | 261 to 265 °C | – | – | CCCn1c(=O)c2[nH]c(-c3cc(C)n(CC(=O)Nc4ccc(Cl)cc4)n3)nc2n(CCC)c1=O [Example 4, 2-[3-(2,6-Dioxo-1,3-dipropyl-2,3,6,7-tetrahydro-1H-purin-8-yl)-5-methyl-pyrazol-1-yl]-N-(4-chlorophenyl)-acetamide] |
